From patent US20220395487A1, “RIG-I INNATE IMMUNE RECEPTOR ANTAGONISTS AND METHODS OF USING SAME” (YALE UNIVERSITY, priority 2019, published 2022)

Tests used:
RIG-I [1] = biological target: T1, RIG-I (Homo sapiens, UniProt O95786); assay: NADH-coupled ATPase assay; assay type: biochemical; design: The native, full-length protein was expressed and purified using methods adapted from published protocols; SUMO (pET-SUMO vector; captured on Ni-NTA) (N, cleaved yes); made in house; host or cells: Rosetta II(DE3) Escherichia coli
T1 sequence (O95786 1-925): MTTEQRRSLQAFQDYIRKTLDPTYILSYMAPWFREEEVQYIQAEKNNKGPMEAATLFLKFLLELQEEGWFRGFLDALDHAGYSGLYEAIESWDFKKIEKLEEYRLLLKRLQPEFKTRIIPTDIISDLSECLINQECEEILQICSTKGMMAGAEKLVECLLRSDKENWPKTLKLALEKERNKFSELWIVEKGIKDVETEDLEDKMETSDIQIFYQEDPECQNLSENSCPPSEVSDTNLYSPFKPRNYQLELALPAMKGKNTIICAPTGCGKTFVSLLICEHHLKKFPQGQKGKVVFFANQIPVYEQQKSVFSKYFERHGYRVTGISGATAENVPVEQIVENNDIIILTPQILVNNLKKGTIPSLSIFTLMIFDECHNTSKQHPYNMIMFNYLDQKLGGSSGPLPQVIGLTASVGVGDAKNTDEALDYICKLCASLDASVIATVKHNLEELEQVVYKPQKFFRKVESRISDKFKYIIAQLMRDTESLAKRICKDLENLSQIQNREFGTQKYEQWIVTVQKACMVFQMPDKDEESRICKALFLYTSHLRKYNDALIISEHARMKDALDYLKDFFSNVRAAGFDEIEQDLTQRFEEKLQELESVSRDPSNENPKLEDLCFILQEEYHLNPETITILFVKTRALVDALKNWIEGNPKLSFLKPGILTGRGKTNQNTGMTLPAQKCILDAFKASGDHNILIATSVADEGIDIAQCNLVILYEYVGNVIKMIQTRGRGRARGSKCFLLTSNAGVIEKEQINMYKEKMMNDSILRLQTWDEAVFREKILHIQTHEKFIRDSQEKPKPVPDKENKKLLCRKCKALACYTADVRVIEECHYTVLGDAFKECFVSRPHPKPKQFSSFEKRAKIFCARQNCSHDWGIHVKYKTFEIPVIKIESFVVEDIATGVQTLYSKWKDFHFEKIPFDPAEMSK
Protocol: In this case, RIG-I was activated by a well-defined synthetic RNA hairpin duplex (SLR10-OH), which was added to a final concentration of 250 nM. A coupled assay mixture consisting of 1 mM NADH, 100 U/ml lactic dehydrogenase, 500 U/ml pyruvate kinase, 2.5 mM phosphoenol pyruvic acid was added to the sample. A 12-point serial dilution of the compound of interest was added in a DMSO vehicle such that DMSO concentrations were kept at a constant 2% over the entire drug dilution. The final concentration ranges for drug dilutions varied from compound to compound based on the potency of the small molecule in question. The dilutions covered ranges from 0 to as high as 100 μM (see association figures). Samples were incubated for at least 1 hour at RT. Reactions were initiated by the addition of a 1:1 ATP/MgCl2 mix to a final concentration of 5 mM.
The rate of ATP hydrolysis was determined indirectly by monitoring the conversion of NADH to NAD^+ that results in a loss of sample absorbance at 340 nm. Absorbance was measured over a 20 min time course using a sweeping read at 10 second intervals and a gain setting of 120 on a Biotek Synergy H1 Plate Reader. Mean kobs values were extrapolated for each time course and plotted against drug concentration, then fit to Eq. (1) to determine IC50 values. Each point was a based on two trials of three biological replicates with error bars representing the Standard deviation.

RIG-I [2] = biological target: T1, RIG-I; assay: Absorbance titration of compound with RIG-I protein; assay type: binding; design: The native, full-length protein was expressed and purified using methods adapted from published protocols; SUMO (pET-SUMO vector; captured on Ni-NTA) (N, cleaved yes); made in house; host or cells: Rosetta II(DE3) Escherichia coli
Protocol: FIG. 1A illustrates the structure of RIG-I ΔCARDs bound to a 14 base pair RNA duplex with ADP▪BeF3 (PDBID:5E3H). FIG. 1B illustrates representative IC50 curves for active compounds. Relative activity of a compound was calculated as a fraction of “no inhibitor” measurement and plotted vs. inhibitor concentration. Each data point represents a mean of n=3 determinations±the standard deviation. FIG. 1C illustrates a representative absorption titration spectra of RIG012 binding to RIG-I. Protein concentrations are indicated in figure legend. (Inset) Stoichiometry of RIG-I binding. Fraction bound (A) is plotted against fractional change in RIG-I concentration (ΔRIG-I). Slope=0.95±0.06. […]
Although IC50 values provide a valuable metric of association for enzyme inhibitors, it was of interest to determine directly whether the lead compound, RIG012, binds to the RIG-I protein. Binding studies were facilitated by the fact that RIG012 contains a strong chromophore that absorbs in the visible range (λmax of 470 nm), making it possible to conduct classical absorbance titrations of the compound with increasing amounts of RIG-I. Upon binding to RIG-I, the 470 nm absorbance band of RIG012 undergoes a dramatic hyperchromic shift to higher intensity values, and the magnitude of this shift is proportional to the relative fraction of bound small molecule (FIG. 1C). […]

CCC1(CC)C(=O)N=C2C1=C(OCc1ccccc1)C(=O)c1ccccc12 [RIG012, 4-Benzyloxy-3,3-diethyl-2H,3H,5H-benzo[g]indole-2,5-dione]
IC50 (RIG-I [1]; NADH-coupled ATPase assay, SLR10-OH activated, mean ± standard deviation, 3 measurements, read-out: IC50): 710 ± 20 nM
RIG-I ATPase inhibition, result in words (RIG-I [1]; SAR discussion of Table 1 compounds): nanomolar IC50 values
slope of fraction bound vs fractional change in RIG-I concentration (stoichiometry of RIG-I binding) (RIG-I [2]; absorbance titration at 470 nm, two independent experiments ± SD): 0.95±0.06
stoichiometry of compound:RIG-I complex (RIG-I [2]; absorbance titration, stoichiometric binding regime): 1:1 complex
